# Like-named read-outs stand apart in the source and are kept apart here.
# Key:
# P. aeruginosa [1] = settings: P. aeruginosa isolate 103; CLSI QC range in parenthesis; cited from earlier work
# B. cenocepacia = assay: MIC testing of CF isolates; assay type: cell-based, Burkholderia cenocepacia
# M. abscessus complex = assay: MIC testing of CF isolates; assay type: cell-based, Mycobacterium abscessus
# [2] = system: Burkholderia cepacia complex; assay type: cell-based, Burkholderia spp.; settings: initial MIC testing
# [3] = system: Burkholderia cepacia complex; assay: Checkerboard FIC/FICI assay; assay type: cell-based, Burkholderia spp.; settings: during FIC testing
# B. multivorans = assay: MIC testing of CF isolates; assay type: cell-based, Burkholderia multivorans; settings: B. multivorans (B. cepacia complex) (BC5b)
# P. aeruginosa [4] = assay: MIC testing of CF isolates and control strain
# Pseudomonas aeruginosa [5] = settings: P. aeruginosa ATCC 27853; CLSI established QC range; cited from earlier work
# S. maltophilia = assay: MIC testing of CF isolates; assay type: cell-based, Stenotrophomonas maltophilia; settings: S. maltophilia (SM21)
# B. cepacia = assay: MIC testing of CF isolates; assay type: cell-based, Burkholderia cepacia; settings: B. cepacia (B. cepacia complex) (BC17)
# Achromobacter spp. = assay: MIC testing of CF isolates; assay type: cell-based
# Pseudomonas aeruginosa [6] = assay: Broth microdilution MIC (Example 12); assay type: cell-based
# Klebsiella pneumoniae = assay: Broth microdilution MIC (Example 12); assay type: cell-based
# Acinetobacter baumannii = assay: Broth microdilution MIC (Example 12); assay type: cell-based
# P. aeruginosa [7] = settings: P. aeruginosa isolate 103; CLSI QC range in parenthesis; cited from earlier work; remark: listed apart in the source
# Escherichia coli = assay: Broth microdilution MIC (Example 12); assay type: cell-based
# E. coli ATCC 25922 = assay: Broth microdilution MIC (Example 16); settings: Escherichia coli
# [8] = system: protein synthesis in E. coli ATCC 25922; settings: 8X the MIC
# [9] = system: DNA synthesis in E. coli ATCC 25922; settings: 16X the MIC
# [10] = system: Gram-positive organisms (S. aureus, S. pneumoniae); assay: Broth microdilution MIC with pulmonary surfactant (Survanta); assay type: cell-based, Staphylococcus aureus, Streptococcus pneumoniae
# [11] = system: cell wall synthesis in E. coli ATCC 25922; settings: 8X the MIC
# [12] = ATCC25922, E. coli ATCC 25922, inoculum 1
# [13] = ATCC25922, E. coli ATCC 25922, inoculum 2
smiles,measurement,setting,value
NCC[C@H](O)C(=O)N[C@@H]1C[C@H](N)[C@@H](O[C@H]2O[C@H](CN)[C@@H](O)[C@H](O)[C@H]2O)[C@H](O)[C@H]1O[C@H]1O[C@H](CO)[C@@H](O)[C@H](N)[C@H]1O [AMK],CLSI QC range of MIC,P. aeruginosa [1],(1-4) μg/mL
same,MIC,B. cenocepacia; B. cenocepacia (B. cepacia complex) (AU197),>64 µg/mL
same,MIC,B. cenocepacia; B. cenocepacia (B. cepacia complex) (BC15),>64 µg/mL
same,MIC,M. abscessus complex; M. abscessus/massiliense complex (AMT0068-40),32^2 μg/mL
same,MIC,M. abscessus complex; M. abscessus/massiliense complex (AMT0119-7),32^2 μg/mL
same,MIC,"M. abscessus complex; M. abscessus/massiliense complex (AMT0493-2), AMK R",>64^2 μg/mL
same,MIC,M. abscessus complex; M. abscessus/massiliense complex (AMT01130-8),16^2 μg/mL
same,MIC,M. abscessus complex; M. abscessus/massiliense complex (AMT1539),32^2 μg/mL
same,MIC,"M. abscessus complex; M. abscessus/massiliense complex (ATCL119977), Macrolide R (inducible)",8^2 μg/mL
same,MIC,[2]; B. cenocepacia isolate 0548 (CIP-R),256 µg/mL
same,MIC,[2]; B. cenocepacia isolate 1631,256 µg/mL
same,MIC,[2]; B. cenocepacia isolate 1783,256 µg/mL
same,MIC,[2]; B. cenocepacia isolate 8555,256 µg/mL
same,MIC,[2]; B. cepacia isolate 0546,64 µg/mL
same,MIC,[2]; B. cepacia isolate 1793,64 µg/mL
same,MIC,[2]; B. cepacia isolate 9040,8 µg/mL
same,MIC,[2]; B. multivorans isolate 5665 (CIP-I),256 µg/mL
same,MIC,[2]; B. multivorans isolate 8952 (CIP-I),64 µg/mL
same,MIC,B. multivorans,>64 µg/mL
same,MIC,P. aeruginosa [4],>64 µg/mL
same,MIC,"P. aeruginosa [4]; P. aeruginosa (AGR1), CF isolate",16 µg/mL
same,QC range of MIC,Pseudomonas aeruginosa [5],(1-4) μg/mL
same,MIC,S. maltophilia,64 µg/mL
same,MIC,B. cepacia,>64 µg/mL
same,MIC,Achromobacter spp.; A. xylosoxidans (AX4),>64 µg/mL
same,MIC,Achromobacter spp.; Achromobacter spp. (AX1),64 µg/mL
same,MIC,"Pseudomonas aeruginosa [6]; P. aeruginosa ATCC 27853, ATCC QC organism (Table 102)",2 µg/mL
same,MIC,"Pseudomonas aeruginosa [6]; P. aeruginosa CDC 230, VIM/OXA",>64 µg/mL
same,MIC,"Pseudomonas aeruginosa [6]; P. aeruginosa CDC 231, KPC/OXA",8 µg/mL
same,MIC,"Pseudomonas aeruginosa [6]; P. aeruginosa CDC 246, NDM/OXA",>64 µg/mL
same,MIC,"Pseudomonas aeruginosa [6]; P. aeruginosa CDC 250, NDM/OXA",>64 µg/mL
same,MIC,"Pseudomonas aeruginosa [6]; P. aeruginosa CDC 356, KPC",2 µg/mL
same,MIC,"Pseudomonas aeruginosa [6]; P. aeruginosa CDC 439, IMP",>64 µg/mL
same,MIC,"Pseudomonas aeruginosa [6]; P. aeruginosa CDC 444, VIM",>64 µg/mL
same,MIC,"Pseudomonas aeruginosa [6]; P. aeruginosa CDC 457, VIM",2 µg/mL
same,MIC,"Pseudomonas aeruginosa [6]; P. aeruginosa CDC 516, KPC/AmpC",2 µg/mL
same,MIC,"Pseudomonas aeruginosa [6]; P. aeruginosa CDC 518, KPC/AmpC",16 µg/mL
same,MIC,"Acinetobacter baumannii; A. baumannii CDC 273, ESBL/OXA",>64 µg/mL
same,MIC,"Acinetobacter baumannii; A. baumannii CDC 274, ESBL/OXA",16 µg/mL
same,MIC,"Acinetobacter baumannii; A. baumannii CDC 275, ESBL/OXA",>64 µg/mL
same,MIC,"Acinetobacter baumannii; A. baumannii CDC 277, ESBL/OXA",16 µg/mL
same,MIC,"Acinetobacter baumannii; A. baumannii CDC 307, OXA",>64 µg/mL
same,MIC,"Acinetobacter baumannii; A. baumannii CDC 308, ESBL/OXA",>64 µg/mL
same,MIC,"Acinetobacter baumannii; A. baumannii CDC 311, OXA",>64 µg/mL
same,MIC,"Acinetobacter baumannii; A. baumannii CDC 312, OXA",1 µg/mL
same,MIC,"Acinetobacter baumannii; A. baumannii CDC 313, ESBL/OXA",4 µg/mL
same,MIC,"Acinetobacter baumannii; A. baumannii NCTC 13304, OXA",0.5 µg/mL
same,CLSI QC range of MIC,P. aeruginosa [7],(1-4) μg/mL
same,MIC,"Escherichia coli; E. coli ATCC 25922, ATCC QC organism (Table 102)",1 µg/mL
same,MIC,"Escherichia coli; E. coli ATCC 35218, ATCC QC organism (Table 102)",1 µg/mL
same,MIC,"Escherichia coli; E. coli ATCC 35218, ESBL",1 µg/mL
same,MIC,"Escherichia coli; E. coli ATCC BAA-2471, NDM",64 µg/mL
same,MIC,"Escherichia coli; E. coli CDC 114, ESBL/KPC",1 µg/mL
same,MIC,"Escherichia coli; E. coli CDC 118, ESBL/NDM",>64 µg/mL
same,MIC,"Escherichia coli; E. coli CDC 435, NDM",>64 µg/mL
same,MIC,"Escherichia coli; E. coli CDC 451, KPC",4 µg/mL
same,MIC,"Escherichia coli; E. coli CDC 503, ESBL/NDM",>64 µg/mL
same,MIC,"Escherichia coli; E. coli MMX 5745, KPC",0.5 µg/mL
same,MIC,"Escherichia coli; E. coli MMX 5755, ESBL",16 µg/mL
same,MIC,"Escherichia coli; E. coli MMX 5756, ESBL",64 µg/mL
same,MIC,"Escherichia coli; E. coli MMX 5758, ESBL",1 µg/mL
CN(C)[C@@H]1C(O)=C(C(N)=O)C(=O)[C@@]2(O)C(O)=C3C(=O)c4c(O)cccc4[C@@](C)(O)[C@H]3C[C@@H]12 [tetracycline],MIC,E. coli ATCC 25922; ATCC25922,1 µg/mL
same,MIC,E. coli ATCC 25922; [12],1 µg/mL
same,MIC,E. coli ATCC 25922; [13],1 µg/mL
same,inhibition of protein synthesis,[8],93.8%
O=C(O)c1cn(C2CC2)c2cc(N3CCNCC3)c(F)cc2c1=O [ciprofloxacin],inhibition of DNA synthesis,[9],89.6%
C[C@@H](O)[C@H]1C(=O)N2C(C(=O)O)=C(SCCN=CN)C[C@H]12 [imipenem],MIC,"[10]; S. pneumoniae ATCC 49619, 0 percent Survanta",≤ 0.015 µg/mL
same,MIC,"[10]; S. pneumoniae ATCC 49619, 1 percent Survanta",0.03 µg/mL
same,MIC,"[10]; S. pneumoniae ATCC 49619, 2.5 percent Survanta",0.03 µg/mL
same,MIC,"[10]; S. pneumoniae MMX 3162, 0 percent Survanta",0.25 µg/mL
same,MIC,"[10]; S. pneumoniae MMX 3162, 1 percent Survanta",0.25 µg/mL
same,MIC,"[10]; S. pneumoniae MMX 3162, 2.5 percent Survanta",0.25 µg/mL
same,MIC,"[10]; S. pneumoniae MMX 3162, 5 percent Survanta",0.25 µg/mL
same,MIC,"[10]; Staphylococcus aureus, ATCC29213, S. aureus ATCC 29213, 0 percent Survanta",≤ 0.015 µg/mL
same,MIC,"[10]; Staphylococcus aureus, ATCC29213, S. aureus ATCC 29213, 1 percent Survanta",≤ 0.015 µg/mL
same,MIC,"[10]; Staphylococcus aureus, ATCC29213, S. aureus ATCC 29213, 2.5 percent Survanta",≤ 0.015 µg/mL
same,MIC,"[10]; Staphylococcus aureus, ATCC29213, S. aureus ATCC 29213, 5 percent Survanta",≤ 0.015 µg/mL
same,MIC,"[10]; Staphylococcus aureus, ATCC29213, S. aureus ATCC 29213, 10 percent Survanta",≤ 0.015 µg/mL
same,MIC,"[10]; Staphylococcus aureus, ATCC43300, S. aureus ATCC 43300, 0 percent Survanta",0.5 µg/mL
same,inhibition of cell wall synthesis,[11],78.8%
same,MIC,E. coli ATCC 25922; ATCC25922,0.12 µg/mL
same,MIC,E. coli ATCC 25922; [12],0.12 µg/mL
same,MIC,E. coli ATCC 25922; [13],0.12 µg/mL

# Reference: patent publication US20230124862A1, “BISMUTH THIOL COMPOUNDS AND COMPOSITIONS AND METHODS OF TREATING MICROBIAL CO-INFECTIONS” (Microbion Corporation, priority 2020, published 2023)
